Measurements reported in patent US9732367B2, “Cell lines” (MEDIMMUNE LIMITED, priority 2012, dated 2017).
pEC50: −log10 of the molar value. Square brackets hold non-standard residues; d marks the D form. Peptide text beside a SMILES is read from it. * marks the point of attachment. Dolaproine = CO[C@@H]([C@@H]1CCCN1)[C@@H](C)C(=O)O; Dil = CC[C@H](C)[C@H](NC)[C@@H](CC(=O)O)OC; NMe2Val = CC(C)[C@@H](C(=O)*)N(C)C

Legend:
[1] = tested on: HCC1954; assay: In vitro cytotoxicity assay, HCC1954; assay type: cell-based
Procedure: (§1) The ADC's generated as described above were tested for cytotoxic activity in SKOV3 and HCC1954 and PC3 tumor cell lines which are standard target cells for testing the activity of anti Her2 antibodies and ADC cell lines. SKOV3 and HCC1954 express high levels of Her2, while PC3 expresses Her2 at low level: the cytotoxic activity was calculated as the concentration of ADC to kill 50% of the tumor cells in vitro as described in Table 5.
(§2) The ADC's generated as described above were tested for cytotoxic activity in SKOV3 and a PC3 tumor cell lines which are standard target cells for testing the activity of anti Her2 antibodies and ADC cell lines. SKOV3 cells express high levels of Her2, while PC3 cells express Her2 at low level. […] The drug treated cells are incubated at 37 C for 3 days in 100 ul medium. 20 ul of Alamar Blue (Life Technologies) is added to each well and the cells incubated for 16-24 hours and an OD 450 nm determined for each well. The cytotoxic activity of the conjugates was calculated as the concentration of ADC to kill 50% of the tumor cells in vitro as described in Table 8.

[2] = tested on: SKOV3; assay: In vitro cytotoxicity assay, SKOV3; assay type: cell-based, human
Procedure: as §1
(§3) The Her2 over expressing cell lines, SKBR3 and SKOV3 were compared to PC3, a cell line that expresses very low level of Her2.
as §2

[3] = tested on: SKBR3; assay: In vitro cytotoxicity assay, SKBR3; assay type: cell-based
Procedure: as §3, §2

[4] = tested on: BT474; assay: In vitro cytotoxicity assay, BT474; assay type: cell-based; conditions: Table 8, 3 days, Alamar Blue
[5] = Table 5, positional 4D5-AF ADCs

SMILES: CC[C@H](C)[C@@H]([C@@H](CC(=O)N1CCC[C@H]1[C@H](OC)[C@@H](C)C(=O)N[C@@H](Cc1ccccc1)C(=O)O)OC)N(C)C(=O)[C@@H](NC(=O)[C@H](C(C)C)N(C)C)C(C)C [AF, Auristatin F] (NMe2Val-V[Dil][Dolaproine]F-OH)
- pEC50 [1, 5]: 7.73
- pEC50 ([1]; Table 8, 3 days, Alamar Blue): 7.89
- pEC50 [2, 5]: 7.16
- pEC50 ([2]; Table 6): 6.54
- pEC50 ([2]; Table 8, 3 days, Alamar Blue): 7.63
- pEC50 ([3]; Table 6): 7.15
- pEC50 ([3]; Table 8, 3 days, Alamar Blue): 7.48
- pEC50 [4]: 7.23
